Measurements as given in publication PMC6444592, “Citrullination of HP1γ chromodomain affects association with chromatin” (Epigenetics & Chromatin, 2019).

Assays:
mESCs [1] = test: live-cell single-particle tracking, 13.5 ms, jump distance analysis; format: cell-based, mouse
Experimental: (§1) Parental E14 mouse embryonic stem cell (mESC) line was profiled by transcriptome analysis, qPCR and potency assays and was routinely tested for mycoplasma contamination and tested negative. Cells were cultured in DMEM (Gibco) supplemented with 15% standard FCS (Gibco), 0.1 mM non-essential amino acids (Gibco), 1% penicillin/streptomycin, 2 mM L-glutamine (Gibco), 1 mM sodium pyruvate (Gibco), 0.1 mM β-mercaptoethanol (Life Technologies) and 10^6 units/l mLIF (ESGRO, Millipore). E14 cells were stored in incubators at 37 °C in 7.5% CO2 (100% humidity) and maintained in 0.1% gelatin coated 10-cm culture dishes with 1:6 passaging every 2 days. Media was changed on a daily basis. E14 ESCs expressing mouse mEos3.2–HaloTag-HP1 fusion proteins were generated by transfecting appropriate pSB7 plasmids into E14 cells using Lipofectamine 2000 transfection reagent (Invitrogen), followed by selection in 600 µg/ml geneticin (Life Technologies). After 2 weeks of geneticin selection, cells were sorted using a Sony SH800S cell sorter for the expression of mEos3.2. Differentiation of ESCs was induced by LIF withdrawal. ESCs cultured in complete ES cell media (+ LIF) were trypsinised and washed twice in 1x PBS to remove residual LIF, seeded into ES cell media without LIF and incubated for 24, 48 or 72 h.
An IX73 Olympus inverted microscope was used with circularly polarised laser beams aligned and focused at the back aperture of an Olympus 1.40 NA 100 × oil objective (Universal Plan Super Apochromat, 100 × , NA 1.40, UPLSAPO100XO/1.4). Continuous wavelength diode laser light sources used include a 561-nm (Cobolt, Jive 200, 200 mW) and a 405-nm laser (Stradus, Toptica, 405–100, 100 mW). Oblique angle illumination was achieved by aligning the laser off axis such that the emergent beam at the sample interface was near-collimated and incident at an angle slightly less than the critical angle θc ~ 67° for a glass/water interface. This generated a ~ 50 μm diameter excitation footprint. The power of the collimated beams at the back aperture of the microscope was 10 kW/cm^2 and 10–100 W/cm^2 for the 561-nm and 405-nm laser beams, respectively. The lasers were reflected by dichroic mirrors (Semrock, Di01-R405/488/561/635). The fluorescence emission was collected through the same objective and then further filtered using a combination of long-pass and band-pass filters (BLP01-561R and FF01-587/35 for 561 nm excitation). The emission signal was projected onto an EMCCD (Photometrics, Evolve 512 Delta) with an electron multiplication gain of 250 ADU/photon operating in a frame transfer mode.
mESCs expressing mEos3.2–HaloTag-tagged HP1γ were passaged 2 days before imaging onto 35-mm glass bottom dishes No 1.0 (MatTek Corporation P35G-1.0-14-C Case) in phenol red-free serum and LIF conditions, if not stated otherwise. Just before single-particle tracking (SPT) imaging experiments, cells were labelled with 0.5 nM HaloTag–JF549 ligand for at least 15 min, followed by two washes in PBS and a 30-min incubation at 37 °C in media, before imaging the cells in fresh phenol red-free serum and LIF conditions. Cells were under-labelled to prevent overlap of fluorophores during SPT. Using 561 nm excitation, fluorescence images were collected as movies of 10,000 frames at 13.5 ms or 1000 to 5000 frames at 500 ms exposure. For live-cell tracking, data were collected for three biological replicates on separate dishes and the average values compared.
Live-cell 13.5-ms single-molecule traces were analysed using software that detects single-molecule trajectories from SPT movies. Briefly, the code detected puncta positions in each image frame using a brightness-weighted centroid after applying a band-pass filter to remove low-frequency background and high-frequency noise from the image data. To track the HP1 single molecules, only fluorescent puncta smaller than 3 pixels and with a signal to noise greater than 8 were analysed. […]

H3K9me3(1–16) peptides = test: peptide pulldown assay; format: binding; settings: 300 mM NaCl HBS-EP; Coomassie gel; n = 3 (p values 0.021, 0.008; ns 0.181)
Experimental: H3K9me3 or unmethylated H3(1–16) peptides, linked to Dynabeads MyOne streptavidin T1 (Thermo Fisher Scientific), were used in pulldown assays with eluted GST-HP1 in HBS-EP (300 mM NaCl, 10 mM HEPES KOH pH 7.4, 5 mM EDTA and 0.2% NP-40). Pulldown assays were performed in 300 mM NaCl HBS-EP as previously described. Samples were resuspended in 2 × Laemmli buffer and resolved by SDS-PAGE followed by Coomassie-blue staining. Images were quantified using ImageJ software.

mESCs [2] = test: HP1γ foci formation, fluorescence imaging of mEos3.2; format: cell-based, mouse; settings: +/− LIF 72 h
Experimental: as §1, with “After 2 weeks of geneticin selection, cells were sorted using a Sony SH800S cell sorter for the expression of mEos3.2. Differentiation of ESCs was induced by LIF withdrawal. ESCs cultured in complete ES cell media (+ LIF) were trypsinised and washed twice in 1x PBS to remove residual LIF, seeded into ES cell media without LIF and incubated for 24, 48 or 72 h.” left out
An IX73 Olympus inverted microscope was used with circularly polarised laser beams aligned and focused at the back aperture of an Olympus 1.40 NA 100 × oil objective (Universal Plan Super Apochromat, 100 × , NA 1.40, UPLSAPO100XO/1.4). […] The fluorescence emission was collected through the same objective and then further filtered using a combination of long-pass and band-pass filters (BLP01-561R and FF01-587/35 for 561 nm excitation). […]

## HP1γR38/9A: HP1γ with alanine substitutions at amino acids 38 and 39 to mimic citrullination
mESCs [1]; +LIF, 13.5 ms, replicate i
  Diffusion coefficient, Bound: 0.090 µm2s-1
  Diffusion coefficient, Diffusing: 0.746 µm2s-1
  Percentage, Bound: 38.9%
  Percentage, Diffusing: 61.1%
mESCs [1]; +LIF, 13.5 ms, replicate ii
  Diffusion coefficient, Bound: 0.100 µm2s-1
  Diffusion coefficient, Diffusing: 0.761 µm2s-1
  Percentage, Bound: 29.6%
  Percentage, Diffusing: 70.4%
mESCs [1]; +LIF, 13.5 ms, replicate iii
  Diffusion coefficient, Bound: 0.100 µm2s-1
  Diffusion coefficient, Diffusing: 0.706 µm2s-1
  Percentage, Bound: 34.1%
  Percentage, Diffusing: 65.9%
mESCs [1]; +LIF, 13.5 ms, replicate iv
  Diffusion coefficient, Bound: 0.100 µm2s-1
  Diffusion coefficient, Diffusing: 1.012 µm2s-1
  Percentage, Bound: 21.5%
  Percentage, Diffusing: 78.5%
mESCs [1]; +LIF, 13.5 ms, replicate v
  Diffusion coefficient, Bound: 0.100 µm2s-1
  Diffusion coefficient, Diffusing: 1.094 µm2s-1
  Percentage, Bound: 13.1%
  Percentage, Diffusing: 86.9%
mESCs [1]; +LIF, 13.5 ms, replicate vi
  Diffusion coefficient, Bound: 0.100 µm2s-1
  Diffusion coefficient, Diffusing: 1.108 µm2s-1
  Percentage, Bound: 37.1%
  Percentage, Diffusing: 62.9%
mESCs [1]; WT and R38/9A, +/− LIF, p values > 0.967
  percentages of molecules in diffusing and bound fractions, significance across conditions: ns.
mESCs [1]; WT and R38/9A, +/− LIF, p values > 0.999
  diffusion coefficients, significance across conditions: no significant differences across conditions
mESCs [1]; −LIF 72 h versus +LIF, 13.5 ms
  diffusion rate, effect of LIF withdrawal: no significant effect
mESCs [1]; −LIF, 13.5 ms, replicate i
  Diffusion coefficient, Bound: 0.075 µm2s-1
  Diffusion coefficient, Diffusing: 0.609 µm2s-1
  Percentage, Bound: 44.5%
  Percentage, Diffusing: 55.5%
mESCs [1]; −LIF, 13.5 ms, replicate ii
  Diffusion coefficient, Bound: 0.100 µm2s-1
  Diffusion coefficient, Diffusing: 0.697 µm2s-1
  Percentage, Bound: 37.2%
  Percentage, Diffusing: 62.8%
mESCs [1]; −LIF, 13.5 ms, replicate iii
  Diffusion coefficient, Bound: 0.100 µm2s-1
  Diffusion coefficient, Diffusing: 0.913 µm2s-1
  Percentage, Bound: 32.9%
  Percentage, Diffusing: 67.1%
mESCs [1]; −LIF, 13.5 ms, replicate iv
  Diffusion coefficient, Bound: 0.100 µm2s-1
  Diffusion coefficient, Diffusing: 0.659 µm2s-1
  Percentage, Bound: 34.6%
  Percentage, Diffusing: 65.4%
mESCs [1]; −LIF, 13.5 ms, replicate ix
  Diffusion coefficient, Bound: 0.100 µm2s-1
  Diffusion coefficient, Diffusing: 1.031 µm2s-1
  Percentage, Bound: 28.9%
  Percentage, Diffusing: 71.1%
mESCs [1]; −LIF, 13.5 ms, replicate v
  Diffusion coefficient, Bound: 0.100 µm2s-1
  Diffusion coefficient, Diffusing: 0.710 µm2s-1
  Percentage, Bound: 39.6%
  Percentage, Diffusing: 60.4%
mESCs [1]; −LIF, 13.5 ms, replicate vi
  Diffusion coefficient, Bound: 0.100 µm2s-1
  Diffusion coefficient, Diffusing: 0.582 µm2s-1
  Percentage, Bound: 38.6%
  Percentage, Diffusing: 61.4%
mESCs [1]; −LIF, 13.5 ms, replicate vii
  Diffusion coefficient, Bound: 0.100 µm2s-1
  Diffusion coefficient, Diffusing: 0.774 µm2s-1
  Percentage, Bound: 36.9%
  Percentage, Diffusing: 63.1%
mESCs [1]; −LIF, 13.5 ms, replicate viii
  Diffusion coefficient, Bound: 0.100 µm2s-1
  Diffusion coefficient, Diffusing: 0.812 µm2s-1
  Percentage, Bound: 33.6%
  Percentage, Diffusing: 66.4%
H3K9me3(1–16) peptides
  binding in pulldown, in words: significantly reduced
mESCs [2]
  foci formation, WT- versus R38/9A-expressing cells: no apparent difference
